Experimental data taken from paper PMC5789271, “Absorption and Metabolism of Phenolics from Digests of Polyphenol-Rich Potato Extracts Using the Caco-2/HepG2 Co-Culture System” (Foods, 2018).
Where “and” joins values, the source holds several entries; their conditions need not be identical. Equal values may be shown once. Entries after “also recorded” stand apart in the source; their conditions may differ.

How the values were obtained:
[1] = test system: human intestinal microbial ecosystem (colonic microbiota); test: Simulated digestion of PRPE in the dynamic multi-reactor GI model, LC-MS phenolic profile of pooled colonic digesta; assay type: in vitro ADME; settings: pooled digesta of three colonic vessels, 24 h; note: key: (+) present; (T) trace amount
Description: PRPE was subjected to in vitro digestion by the GI model as described previously in detail. Briefly, the model was composed of five double-jacketed vessels representing the stomach, the small intestine, the ascending colon, the transverse colon, and the descending colon. The model was fully computer controlled. The pH was automatically controlled by addition of 0.2 M HCl and 0.5 M NaOH solution upon a change in pH in the vessels to simulate the in vivo conditions in the different segments of the human gastrointestinal tract. The temperature was kept at 37 °C and anaerobic conditions were maintained in the fermentation vessels by flushing nitrogen gas for 20 min into the airspace every day. The experiment was started after a 2-week stabilization period in which fecal slurry, obtained from five healthy volunteers with no history of GI disease or antibiotic use in the previous six months, were inoculated into the last three vessels. After the 2-week stabilization period, 130 g PRPE was dissolved in the GI food mixture, which was composed of the following ingredients: arabinolactan, pectin, xylan, starch, glucose, yeast extracts, peptone, mucin, and cysteine powders—a composition previously developed by Molly et al. (1993). The GI food mixture was stored at 4 °C during the study. Samples were collected from all three colonic vessels before and 24 h after addition of PRPE to the GI digestion model. Each digestion was carried out in triplicate. Samples were centrifuged at 1000× g and stored at −80 °C for later analysis by liquid chromatography–mass spectrometry (LC-MS) and for the cell culture experiments.
The samples that were collected from the last three colonic vessels of the gut model after 24 h digestion were pooled after each experiment and prepared according to the method described previously. The samples were centrifuged at 36,000× g, 4 °C for 2 h. The supernatant was collected and the pH was neutralized to pH 7 before being filter sterilized with a 25 mm syringe filter (0.2 µm, MCE, Fisher Scientific, Ottawa, ON, Canada) and stored at −80 °C until used for the Caco-2/HepG2 cell experiments. Samples collected before the addition of PRPE were considered as the controls.
This condition was maintained for 3 min.

[2] = test system: Caco-2 and HT29-MTX cells; set-up: method as in PMID 18154874; settings: 1-h co-culture of Caco-2 and HT29-MTX cells; cited from earlier work
Caco-2 cells = test: Caco-2 cell transport bioassay (Caco-2/HepG2 co-culture, 2 h); assay type: in vitro ADME, human; set-up: Percentage of Control Value at 0 h, A (2 h) / Percentage of Control Value at 0 h, B (2 h): concentration or dose not given beside the values; settings: for Percentage of Digesta Value, A (2 h) / Percentage of Digesta Value, B (2 h): PRPE digesta 10% (v/v); for Percentage of Digesta Value, A (2 h) / Percentage of Control Value at 0 h, A (2 h): apical chamber after 2 h; for Percentage of Digesta Value, B (2 h) / Percentage of Control Value at 0 h, B (2 h): basolateral chamber after 2 h; for Percentage of Control Value at 0 h, A (2 h) / Percentage of Control Value at 0 h, B (2 h): control digesta
HepG2 cells = test: HepG2 cell metabolism bioassay (basolateral chamber, further 3 h); settings: for Fold increase of basolateral concentration after HepG2 incubation: 3 h with HepG2 cells, relative to initial basolateral value
Description: Cells were incubated at 37 °C with 5% CO2 and 90% humidity and were monitored daily.
During this time, the medium was changed every other day. Before starting the treatments, the integrity of the monolayer was checked by measuring the transepithelial electrical resistance (TEER). […] Caco-2 monolayers having reached a TEER of 250 ohm/cm^2 or greater were used for the transport experiment [29]. […] Medium (500 µL) containing digesta of PRPE was added to the apical side of the wells and incubated for up to 2 h. […] Samples were taken from the receiver well after 2 and 5 h. […] All samples were centrifuged at 2000× g for 15 min and the supernatants were stored at −20 °C for further analysis by LC-MS.
After thawing, samples were vortexed and filtered using 25 mm syringe filters (0.45 µm, MCE, Fisher Scientific, Ottawa, ON, Canada) and transferred to HPLC vials for LC-MS analysis. […] Phenolic compounds and metabolites were eluted using a gradient of solvent A (10 mM formic acid, pH 3.5) and B (5 mM ammonium formate solution in 100% methanol), starting with 5% B, increasing to 30% B in 5 min, 70% B in 7 min, and 100% B at 9 min. This condition was maintained for 3 min. A solvent flow rate of 1.0 mL/min was used and 20 µL of sample was injected into the LC system. […] The analyses were performed in both positive and negative modes and the data was acquired over a mass range of m/z 100–1000. […] The data were acquired and processed using Agilent Mass Hunter software version B.04.00. […] The relative abundance of the compounds was calculated relative to the quantification of benzoic acid as the reference peak, as benzoic acid was present in all the cellular compartments at the same concentration at all time points.

Caco-2 cell monolayer = test system: Caco-2 cell monolayer; set-up: method as in PMID 12784628; settings: cited from earlier work
[3] = PRPE digesta, basolateral chamber after 3 h with HepG2 cells alone (t = 5 h), relative to basolateral value at 2 h
[4] = control digesta, basolateral chamber after 3 h with HepG2 cells (t = 5 h)
[5] = listed as 3-hydroxyphenylacetic acid

Row | Compound | Presence after human simulated intestinal digestion of PRPE [1] | Percentage of Digesta Value, A (2 h) (Caco-2 cells) | Percentage of Digesta Value, B (2 h) (Caco-2 cells) | Percentage of Control Value at 0 h, A (2 h) (Caco-2 cells) | Percentage of Control Value at 0 h, B (2 h) (Caco-2 cells) | Fold increase of basolateral concentration after HepG2 incubation (HepG2 cells; PRPE digesta) | Percentage of Basolateral Value, B (5 h) (HepG2 cells; [3]) | Percentage of Basolateral Value, B (5 h) (HepG2 cells; [4]) | further results
1 | O=C(O)C=Cc1ccccc1 [Cinnamic acid, 3-Phenylprop-2-enoic acid] | + |  |  |  |  |  |  |  | 
2 | O=C(O)CCc1ccc(O)c(O)c1 [Dihydrocaffeic acid, 3-(3′,4′-Dihydroxyphenyl)propionic acid] | + | 67% | 15% | 26% | 26% | three-fold increase | 338% | 123% | Permeability across Caco-2 cells [2]: 0.5%; Percentage of Digesta Value, B (2 h) (Caco-2 cells; listed as dihydrocaffeic acid): 10–15% and 10%; Percentage of Basolateral Value, B (5 h) (HepG2 cells; PRPE digesta, basolateral chamber after 3 h with HepG2 cells alone (t = 5 h), relative to basolateral value at 2 h, listed as dihydrocaffeic acid): 160–370%
3 | COc1cc(/C=C/C(=O)O)ccc1O [Ferulic acid, (E)-3-(4-Hydroxy-3-methoxy-phenyl)prop-2-enoic acid] | + | 90% | 11% |  |  | 1.6 fold | 166% |  | Percentage transported to the basolateral side of the Caco-2 cell monolayer (Caco-2 cell monolayer): 3.42%; Percentage of Digesta Value, B (2 h) (Caco-2 cells; listed as ferulic acid): 10–15%; Percentage of Basolateral Value, B (5 h) (HepG2 cells; PRPE digesta, basolateral chamber after 3 h with HepG2 cells alone (t = 5 h), relative to basolateral value at 2 h, listed as ferulic acid): 160–370%
4 | COc1cc(CCC(=O)O)ccc1O [Dihydroferulic acid, 3-(4-Hydroxy-3-methoxyphenyl)propionic acid] | + | 78% | 10% |  |  |  | 78% |  | Percentage of Digesta Value, B (2 h) (Caco-2 cells; listed as dihydroferulic acid): 10–15% and 15%
5 | O=C(O)c1ccccc1 [Benzoic acid] | + | + | + | + | + |  | + | + | 
6 | C[C@@H]1O[C@@H](OC[C@H]2O[C@@H](Oc3c(-c4ccc(O)c(O)c4)oc4cc(O)cc(O)c4c3=O)[C@H](O)[C@@H](O)[C@@H]2O)[C@H](O)[C@H](O)[C@H]1O [Rutin, Quercetin-3-O-rutinoside] | + |  |  |  |  |  |  |  | 
7 | O=C(O)CCc1ccccc1 [Phenylpropanoic acid] | + | 65% | - | 100% | - |  | - | - | Percentage of Digesta Value, A (2 h) (Caco-2 cells; listed as phenylpropanoic acid): 65–70%; Percentage of Digesta Value, B (2 h) (Caco-2 cells; listed as phenylpropanoic acid): not detected; also recorded: none of these three compounds were measurable
8 | O=C(O)c1ccc(O)c(O)c1 [Protocatechuic acid, 3,4-Dihydroxybenzoic acid] | + |  |  |  |  |  |  |  | 
9 | O=C(O)c1cccc(O)c1 [3-Hydroxybenzoic acid] | + | 50% | 5% |  |  |  | 100% |  | Percentage of Digesta Value, B (2 h) (Caco-2 cells; listed as 3-hydroxybenzoic acid): 3–5%; Percentage of Basolateral Value, B (5 h) (HepG2 cells; PRPE digesta, basolateral chamber after 3 h with HepG2 cells alone (t = 5 h), relative to basolateral value at 2 h, listed as 3-hydroxybenzoic acid): unchanged
10 | COc1cc(C(=O)O)ccc1O [Vanillic acid, 4-Hydroxy-3-methoxybenzoic acid] | + |  |  |  |  |  |  |  | 
11 | O=C(O)/C=C/c1ccc(O)cc1 [Coumaric acid] | + | 68% | 3% |  |  | More than a two-fold increase | 212% |  | Percentage of Digesta Value, B (2 h) (Caco-2 cells; listed as coumaric acid): 3–5%
12 | O=C(O)CCc1cccc(O)c1 [3-Hydroxyphenylpropionic acid, 3-(3-Hydroxyphenyl)propionic acid] | + | 69% | 4% | 90% | - | 2.3 fold | 233% | - | Percentage of Digesta Value, B (2 h) (Caco-2 cells; listed as 3-hydroxyphenylpropionic acid): 3–5%; Percentage of Basolateral Value, B (5 h) (HepG2 cells; PRPE digesta, basolateral chamber after 3 h with HepG2 cells alone (t = 5 h), relative to basolateral value at 2 h, listed as 3-hydroxyphenylpropionic acid): 160–370%
13 | O=C(O)Cc1cccc(O)c1 [3-Hydroxyphenylacetic acid] | + | 70% | - | 100% | - |  | - | - | Percentage of Digesta Value, A (2 h) (Caco-2 cells; [5]): 65–70%; Percentage of Digesta Value, B (2 h) (Caco-2 cells; [5]): not detected; also recorded: none of these three compounds were measurable
